“Also recorded” adds a separate entry of the source.
How the values were obtained:
[1] = test system: plasma cell leukemia (PCL) cell line L363; assay: Co-cultures of effector T cells and target cells after pretreatment with compounds, bispecific antibody-induced target cell killing (L363); format: cell-based, human; settings: L363 target cells pretreated with Compound 2 (1 nM) for 72 hours, washed; co-culture 72 hours, E:T 1:1; vs DMSO
Protocol: (§1) CD3+ T-cells were isolated from peripheral blood mononuclear cell fractions from healthy donors using magnetic-activated cell sorting. Cells were thawed in RPMI 1640 culture media supplemented with 10% (v/v) fetal bovine serum (FBS), non-essential amino acids and sodium pyruvate. All cell cultures and cell treatments were performed in a 37° C., 5% CO2 incubator for time periods as indicated. T-cells were then labeled with CFSE (carboxyfluorescein succinimidyl ester) according to the manufacturer's instructions, and allowed to recover overnight in the presence of 1 ng/mL human IL-7. T-cells were treated with DMSO (control) or Compound 2 as single agent for 16 hours before co-culture. The multiple myeloma H929 and OPM-2 cell lines or the plasma cell leukemia (PCL) cell line L363 were labeled with CellTrace™ Violet, then pretreated with DMSO (control) or Compound 2 as a single agent for 72 hours. T-cells and target cells were then washed to remove compounds and co-cultured in the presence of increasing concentrations of a bispecific antibody specifically binding to human B cell maturation antigen (BCMA) and to human CD3ε (CD3) as provided herein, for 72 hours, at different effector T-cell (E) to target cell (T) ratios. […]

[2] = test system: multiple myeloma OPM-2 cell line; assay: Co-cultures of effector T cells and target cells after pretreatment with compounds, cytotoxicity assays with OPM-2 cells; format: cell-based, human; settings: E:T 1:5
Protocol: CD3+ T-cells were isolated from peripheral blood mononuclear cell fractions from healthy donors using magnetic-activated cell sorting. Cells were thawed in RPMI 1640 culture media supplemented with 10% (v/v) fetal bovine serum (FBS), non-essential amino acids and sodium pyruvate. All cell cultures and cell treatments were performed in a 37° C., 5% CO2 incubator for time periods as indicated. T-cells were then labeled with CFSE (carboxyfluorescein succinimidyl ester) according to the manufacturer's instructions, and allowed to recover overnight in the presence of 1 ng/mL human IL-7. T-cells were treated with DMSO (control) or Compound 2 as single agent for 16 hours before co-culture. The multiple myeloma H929 and OPM-2 cell lines or the plasma cell leukemia (PCL) cell line L363 were labeled with CellTrace™ Violet, then pretreated with DMSO (control) or Compound 2 as a single agent for 72 hours. T-cells and target cells were then washed to remove compounds and co-cultured in the presence of increasing concentrations of a bispecific antibody specifically binding to human B cell maturation antigen (BCMA) and to human CD3ε (CD3) as provided herein, for 72 hours, at different effector T-cell (E) to target cell (T) ratios. The cells were collected at the end of co-culture for analysis of target cell apoptosis and necrosis by flow cytometry using APC Annexin V Apoptosis Detection Kit with 7-AAD, following the manufacturer's directions (BioLegend).

[3] = test system: multiple myeloma H929 cell line; assay: Co-cultures of effector T cells and target cells with concurrent compound treatments; format: cell-based, human; settings: concurrent exposure to Compound 2 (1 nM) for 72 hours, T-cells of three donors, E:T 1:3, vs DMSO
Protocol: CD3+ T-cells were isolated from peripheral blood mononuclear cell fractions from three different healthy donors (donors A, B and C) using magnetic-activated cell sorting. Cells were thawed in RPMI 1640 culture media supplemented with 10% (v/v) FBS, non-essential amino acids, sodium pyruvate and penicillin/streptomycin. All cell cultures and treatments were performed in a 37° C., 5% CO2 incubator for time periods as indicated. T-cells were then labeled with CFSE (carboxyfluorescein succinimidyl ester) according to the manufacturer's instructions, and allowed to recover overnight in the presence of 1 ng/mL human IL-7. The multiple myeloma H929 cell line was labeled with CellTrace™ Violet, and allowed to recover overnight. T-cells and target cells were then washed and co-cultured in the presence of increasing concentrations of bispecific antibody specifically binding to human B cell maturation antigen (BCMA) and to human CD3ε (CD3) provided herein, for 72 hours, at a fixed effector T-cell (E) to target cell (T) ratio of 1:3. Co-cultures in the presence of bispecific antibody were performed in the presence of DMSO (control) or Compound 2. Cells were collected at the end of co-culture for analysis of target cell apoptosis and necrosis by flow cytometry using APC Annexin V Apoptosis Detection Kit with 7-AAD.

[4] = test system: lenalidomide-resistant multiple myeloma cell line H929-1051; assay: Co-cultures of effector T cells and lenalidomide-resistant multiple myeloma target cells after pretreatment with compounds; format: cell-based, human; settings: H929-1051 target cells pretreated 72 hours with Compound 2 (1 nM) or pomalidomide (100 nM), washed; co-culture 72 hours, E:T 1:3; vs DMSO
Source text: Co-cultures of effector T cells (E) and lenalidomide-resistant multiple myeloma target cells (T) after pretreatment with compounds. CD3+ T-cells were isolated from peripheral blood mononuclear cell fractions from three different healthy donors (donors D, E and F) using magnetic-activated cell sorting. Cells were thawed in RPMI 1640 culture media supplemented with 10% (v/v) fetal bovine serum (FBS), non-essential amino acids, sodium pyruvate and penicillin/streptomycin. All cell cultures and cell treatments were performed in a 37° C., 5% CO2 incubator for time periods as indicated. T-cells were then labeled with CFSE (carboxyfluorescein succinimidyl ester) according to the manufacturer's instructions, and allowed to recover overnight in the presence of 1 ng/mL human IL-7. The lenalidomide-resistant multiple myeloma cell line H929-1051 was generated by long-term culture in the presence of increasing concentrations of lenalidomide, as previously described (Ghandi et al. Br. J. Haematol. 2014 January; 164(2):233-44) using methods described (Lopez-Girona et al. Leukemia. 2012 November; 26(11):2326-35). H929-1051 cells were labeled with CellTrace™ Violet, then pretreated with DMSO (control), pomalidomide, or Compound 2 as a single agent for 72 hours. T-cells and target cells were then washed to remove compounds and co-cultured in the presence of increasing concentrations of the bispecific antibody specifically binding to human B cell maturation antigen (BCMA) and to human CD3ε (CD3) as provided herein, for 72 hours, at a fixed effector T-cell (E) to target cell (T) ratio of 1:3. The cells were collected at the end of co-culture for analysis of target cell apoptosis and necrosis by flow cytometry using APC Annexin V Apoptosis Detection Kit with 7-AAD, following the manufacturer's directions (BioLegend).

[5] = test system: multiple myeloma H929 cell line; assay: Co-cultures of effector T cells and target cells after pretreatment with compounds, bispecific antibody-induced target cell killing (H929); format: cell-based, human; settings: H929 target cells pretreated with Compound 2 (1 nM) for 72 hours, washed; co-culture 72 hours, E:T 1:3; vs DMSO
Protocol: as §1

[6] = test system: acute myeloid leukemia (AML); settings: administered alone; cited from earlier work
[7] = combination of effector T-cell pretreatment and target cell pretreatment with Compound 2 (1 nM)
[8] = either effector T-cells (16 hours) or target cells (72 hours) alone pretreated with Compound 2 (1 nM)

Molecule | potency of the bispecific antibody [1] | efficacy of the bispecific antibody [2, 7] | potentiation of the bispecific antibody [2, 7] | efficacy of target cell killing by the bispecific antibody [2, 8] | potency of target cell killing by the bispecific antibody [2, 8] | maximal efficacy of target cell killing mediated by the bispecific antibody [3] | potency of the bispecific antibody [3] | maximal target cell killing induced by the bispecific antibody [4] | potency of the bispecific antibody [4] | maximal target cell killing induced by the bispecific antibody [5] | potency of the bispecific antibody [5] | response in treating acute myeloid leukemia (AML) at relapse [6]
N#Cc1ccc(N2CCN(Cc3ccc(COc4cccc5c4CN([C@H]4CCC(=O)NC4=O)C5=O)cc3)CC2)c(F)c1 [Compound 2, (S)-4-(4-(4-(((2-(2,6-dioxopiperidin-3-yl)-1-oxoisoindolin-4-yl)oxy)methyl)benzyl)piperazin-1-yl)-3-fluorobenzonitrile] | significantly increased | increase in efficacy | greatest potentiation | increased | increased | improved; also recorded: enhances | significantly increased; also recorded: enhances | increased; also recorded: enhances | increased; also recorded: enhances | significantly increased | significantly increased | 
Nc1cccc2c1C(=O)N(C1CCC(=O)NC1=O)C2=O (stereo not shown) [pomalidomide, reference compound] |  |  |  |  |  |  |  | not |  |  |  | 
CT-011: anti-PD-1 antibody, a humanized antibody |  |  |  |  |  |  |  |  |  |  |  | failed to show response

From patent US11439637B2, “Antiproliferative compounds and bispecific antibody against BCMA and CD3 for combined use” (Celgene Corporation, priority 2018, dated 2022)
